In patent US20150132328A1 (priority 2011, published 2015):
Where two headings read alike, the source gives them in different places. Marks after values point to notes of the source that are not given here.

How the values were obtained:
[1] = system: human leukocytes; settings: for Phagocytosis: peptide 10^-10M + zinc 10^-9M
From the text: In order to test a different effect of the proliferation, we decided to investigate the effect of peptide+zinc versus peptide+zinc+DTPA on human leukocytes phagocytosis.

[2] = system: thymocytes
Method: For that, we made organ culture in agarose gels and a filter with pores of 5 micron to prevent migration of the thymocytes. The Apoptosis was quantified with 7AAD and it was evaluated by flow cytometry.

[3] = system: LR.4 lymphoma; settings: LR.4 + IMMP
From the text: Thymus and spleen were studied since they correspond to lymphatic organs, liver which corresponds to the main organ to which the metastases of abdominal tumors and kidney are directed are directed by their high blood irrigation.

[4] = system: BMK-16myc cells tumor; settings: for Metastases (animals with detected metastases/total number of animals): Tumor + IMMP
From the text: We used BMK-16myc cells which are baby mouse kidney cells immortalized with genes of 16 protein of the human papilloma virus (HPV) and the myc gene, which grow in mouse, are highly invasive and produce metastases rapidly. One million cells were implanted subcutaneously in the back of each mouse. […] Subsequently, the animals were sacrificed and the tumors under the back skin as well as thymus, spleen, liver and kidney were collected for histopathological examination.

[5] = system: human lymphocytes
[6] = system: newborn rat thymocytes; settings: With A
[7] = system: THP-1 cells; settings: IMMP 10^−10M, no cortisone
[8] = system: antibodies against Newcastle; settings: 10 ng/dose with Newcastle vaccine
[9] = system: stress model induced in mice; settings: for Corticosterone / IL-1: Table 22
[10] = system: LR.4 lymphoma
[11] = system: platelets; settings: three dosages
[12] = STRESS + IMMP, 10 ng/dose i.p., Table 21

Peptide LEDGPKFL + Zinc [IMMP]
Phagocytosis ([1]; 24 h): 56 ± 2 arbitrary fluorescence intensity units | Phagocytosis ([1]; 48 h): 185 ± 18 arbitrary fluorescence intensity units | Increase of phagocytosis ([1]; 48 hours): about four times | Thymocytes in apoptosis (%) ([2]; [IMMP] 10^−8): 1.6 ± 0.8 % | Thymocytes in apoptosis (%) ([2]; [IMMP] 10^−9): 1.7 ± 0.7 % | Thymocytes in apoptosis (%) ([2]; [IMMP] 10^−10): 1.5 ± 0.09 % | Thymocytes in apoptosis (%) ([2]; [IMMP] 10^−11): 2.5 ± 0.91% | Metastases (animals with metastases detected/total number of animals) ([3]; Kidney): 0/5 | Metastases (animals with metastases detected/total number of animals) ([3]; Liver): 0/5 | Metastases (animals with metastases detected/total number of animals) ([3]; Spleen): 0/5 | Metastases (animals with metastases detected/total number of animals) ([3]; Thymus): 0/5 | Metastases (animals with detected metastases/total number of animals) ([4]; Kidney): 0/5 | Metastases (animals with detected metastases/total number of animals) ([4]; Liver): 3/5 | Metastases (animals with detected metastases/total number of animals) ([4]; Spleen, 200 ng Kg i.p., 10 doses): 0/5 | Metastases (animals with detected metastases/total number of animals) ([4]; Thymus): 0/5 | Animals in which development of metastasis was reduced ([4]; mouse, in vivo): 40% | Tumor size vs untreated group ([4]; tendency to smaller tumors): not statistically significant | Animals with metastases in liver ([4]; tumor + IMMP (100% untreated)): 60% | Concentrations that increased the proliferative response [5]: 10-10 M | Cells Percent CD4 ([6]; [M] 10^−6): 15.1 ± 2.5% | Cells Percent CD8 ([6]; [M] 10^−6): 5.3 ± 1.5% | Cells Percent DN ([6]; [M] 10^−6): 6.6 ± 1.7% | Cells Percent DP ([6]; [M] 10^−6): 72.2 ± 1.5% | Cells Percent CD4 ([6]; [M] 10^−7): 14.2 ± 3.7% | Cells Percent CD8 ([6]; [M] 10^−7): 6.0 ± 2.2 % | Cells Percent DN ([6]; [M] 10^−7): 3.7 ± 0.2% | Cells Percent DP ([6]; [M] 10^−7): 73.3 ± 2.6% | Cells Percent CD4 ([6]; [M] 10^−8): 13.9 ± 2.6 % | Cells Percent CD8 ([6]; [M] 10^−8): 6.1 ± 0.2 % | Cells Percent DN ([6]; [M] 10^−8): 7.1 ± 2.8% | Cells Percent DP ([6]; [M] 10^−8): 74.8 ± 0.7 % | Cells Percent CD4 ([6]; [M] 10^−9): 17.7 ± 1.9 % | Cells Percent CD8 ([6]; [M] 10^−9): 4.8 ± 1.9% | Cells Percent DN ([6]; [M] 10^−9): 7.0 ± 1.1 % | Cells Percent DP ([6]; [M] 10^−9): 70.5 ± 1.2 % | Cells Percent CD4 ([6]; [M] 10^−10): 16.7 ± 1.0 % | Cells Percent CD8 ([6]; [M] 10^−10): 4.7 ± 2.2% | Cells Percent DN ([6]; [M] 10^−10): 5.1 ± 1.9% | Cells Percent DP ([6]; [M] 10^−10): 73.3 ± 3.0% | Cells Percent CD4 ([6]; [M] 10^−11): 15.4 ± 0.8 % | Cells Percent CD8 ([6]; [M] 10^−11): 6.0 ± 1.7% | Cells Percent DN ([6]; [M] 10^−11): 5.1 ± 2.0% | Cells Percent DP ([6]; [M] 10^−11): 74.8 ± 5.4% | Cells Percent CD4 ([6]; [M] 10^−12): 16.7 ± 0.9 % | Cells Percent CD8 ([6]; [M] 10^−12): 6.0 ± 0.5 % | Cells Percent DN ([6]; [M] 10^−12): 6.4 ± 0.4% | Cells Percent DP ([6]; [M] 10^−12): 71.8 ± 3.5 % | Cell Viability (% with respect to the control) [7]: 180 ± 5% | Antibody production against Newcastle (number of times the serum could be diluted with 100% of the response) ([8]; Day 13): 0 | Antibody production against Newcastle (number of times the serum could be diluted with 100% of the response) ([8]; Day 23): 18.0 | Antibody production against Newcastle (number of times the serum could be diluted with 100% of the response) ([8]; Day 30): 64.5 | Antibody production against Newcastle (number of times the serum could be diluted with 100% of the response) ([8]; Day 37): 60.2 | Corticosterone ([9]; IMMP alone): 33.5 ± 2.1 ng/dL | IL-1 ([9]; IMMP alone): 6.9 ± 0.8 ng/dL | WEIGHT ([9]; IMMP alone, Table 22 (title: C57BL/6J mice with lymphoma LR.4)): 13.8 ± 1.2 g | IL-1 serum level [9, 12]: 6.9 ± 0.8 ng/dL | WEIGHT [9, 12]: 13.8 ± 1.2 g | corticosterone serum level [9, 12]: 33.5 ± 2.1 ng/dL | Corticosterone ([9]; STRESS + IMMP): 43.1 ± 3.8 ng/dL | IL-1 ([9]; STRESS + IMMP): 18.1 ± 2.0 ng/dL | WEIGHT ([9]; STRESS + IMMP, Table 22 (title: C57BL/6J mice with lymphoma LR.4)): 13.1 ± 0.9 g | Body weight loss ([9]; stress + IMMP (36% without)): 11% | Increase in corticosteroid production induced by stress ([9]; stress + IMMP (70% without)): 38% | Increase of plasma IL-1 over control ([9]; stress + IMMP (three times without)): increased only once | Body weight (control percent) ([10]; IMMP alone, no tumor, week 0): 100 ± 2% | Survival (percent of live animals) ([10]; IMMP alone, no tumor, week 0): 100% | Body weight (control percent) ([10]; IMMP alone, no tumor, week 1): 100 ± 4% | Survival (percent of live animals) ([10]; IMMP alone, no tumor, week 1): 100% | Body weight (control percent) ([10]; IMMP alone, no tumor, week 2): 100 ± 5% | Survival (percent of live animals) ([10]; IMMP alone, no tumor, week 2): 100% | Body weight (control percent) ([10]; IMMP alone, no tumor, week 3): 100 ± 3% | Survival (percent of live animals) ([10]; IMMP alone, no tumor, week 3): 100% | Body weight (control percent) ([10]; IMMP alone, no tumor, week 4): 100 ± 3% | Survival (percent of live animals) ([10]; IMMP alone, no tumor, week 4): 100% | Body weight (control percent) ([10]; IMMP alone, no tumor, week 5): 100 ± 4% | Survival (percent of live animals) ([10]; IMMP alone, no tumor, week 5): 100% | Body weight (control percent) ([10]; IMMP alone, no tumor, week 6): 100 ± 3% | Survival (percent of live animals) ([10]; IMMP alone, no tumor, week 6): 100% | Body weight (control percent) ([10]; IMMP alone, no tumor, week 7): 100 ± 5% | Survival (percent of live animals) ([10]; IMMP alone, no tumor, week 7): 100% | Survival (percent of live animals) ([10]; IMMP alone, no tumor, week 8): 100% | Survival (percent of live animals) ([10]; IMMP alone, no tumor, week 9): 100% | Survival (percent of live animals) ([10]; IMMP alone, no tumor, week 10): 100% | Survival (percent of live animals) ([10]; IMMP alone, no tumor, week 11): 100% | Survival (percent of live animals) ([10]; IMMP alone, no tumor, week 12): 100% | Survival (percent of live animals) ([10]; IMMP alone, no tumor, week 13): 100% | Survival (percent of live animals) ([10]; IMMP alone, no tumor, week 14): 100% | Body weight (control percent) ([10]; LR.4 + IMMP, week 0): 100 ± 2% | Survival (percent of live animals) ([10]; LR.4 + IMMP, week 0): 100% | Body weight (control percent) ([10]; LR.4 + IMMP, week 1): 101 ± 4% | Survival (percent of live animals) ([10]; LR.4 + IMMP, week 1): 100% | Body weight (control percent) ([10]; LR.4 + IMMP, week 2): 116 ± 6 % | Survival (percent of live animals) ([10]; LR.4 + IMMP, week 2): 100% | Body weight (control percent) ([10]; LR.4 + IMMP, week 3): 125 ± 8 % | Survival (percent of live animals) ([10]; LR.4 + IMMP, week 3): 100% | Body weight (control percent) ([10]; LR.4 + IMMP, week 4): 126 ± 8 % | Survival (percent of live animals) ([10]; LR.4 + IMMP, week 4): 100% | Body weight (control percent) ([10]; LR.4 + IMMP, week 5): 154 ± 11 % | Survival (percent of live animals) ([10]; LR.4 + IMMP, week 5): 100% | Body weight (control percent) ([10]; LR.4 + IMMP, week 6): 152 ± 12 % | Survival (percent of live animals) ([10]; LR.4 + IMMP, week 6): 100% | Body weight (control percent) ([10]; LR.4 + IMMP, week 7): 150 ± 11 % | Survival (percent of live animals) ([10]; LR.4 + IMMP, week 7): 100% | Survival (percent of live animals) ([10]; LR.4 + IMMP, week 8): 100% | Survival (percent of live animals) ([10]; LR.4 + IMMP, week 9): 67% | Survival (percent of live animals) ([10]; LR.4 + IMMP, week 10): 50% | Survival (percent of live animals) ([10]; LR.4 + IMMP, week 11): 34% | Survival (percent of live animals) ([10]; LR.4 + IMMP, week 12): 16% | Survival (percent of live animals) ([10]; LR.4 + IMMP, week 13): 16% | Survival (percent of live animals) ([10]; LR.4 + IMMP, week 14): 0% | Decrease of tumor growth ([10]; last two weeks): about 33% | Gain in survival at 50% ([10]; mouse, in vivo): greater than 4 weeks | Time all animals kept alive longer than the untreated group ([10]; mouse, in vivo): 5 weeks | Platelets ([11]; CC14 + IMMP, pretreatment 50 ng/kg each third day): 886 + 110^# 10^3/μL | Platelets ([11]; IMMP alone, no CCI4, 50 ng/kg each third day): 1560 + 248* 10^3/μL
